Read-outs that look alike come from different tables or passages of the source.
What was measured:
Type in all cases: cell-based
[1] = tested on: EGFR wild-type cell line A431; test: Cell proliferation inhibition experiment (CellTiter-Glo), A431; conditions: Homo sapiens, A431 cells, Cell Titer-Glo, read-out: A431 EGFR WT IC50
Method: A431 cells, purchased from ATCC.
1) A431 cells were inoculated in a 384-well culture plate at a density of 800 cells per well, 30 μL per well, placed in a cell incubator, and cultured for 24 hours (37° C., 5% CO2).
(§1) 3) 30 nL of gradient diluted compound was transferred into the 384-well experimental plate using Echo 550 (Labcyte) at a DMSO final concentration of 0.1%, and the culture plate was incubated in a cell incubator for 72 hours (37° C., 5% CO2).
(§2) 4) 30 μL of Cell Titer-Glo reagent was added to each well and left for 30 minutes at room temperature and protected from light.
(§3) 5) Envision microplate reader (PerkinElmer) detected chemiluminescence signals.
(§4) 6) GraphPad Prism 8 software was used for data analysis to obtain the IC50 of the compounds of the present disclosure and the positive control.

[2] = target: Ba/F3 L858R/T790M/C797S EGFR triple mutant cell line (Homo sapiens, UniProt P00533, T790M/C797S/L858R, cells depend on it); test: Cell proliferation inhibition experiment (CellTiter-Glo), Ba/F3 L858R/T790M/C797S; conditions: 72 hours, Cell Titer-Glo, read-out: Ba/F3 (L858R/T790M/C797S) IC50
Method: as §1, §2, §3, §4

[3] = target: Ba/F3 De119/T790M/C797S EGFR triple mutant cell line (Homo sapiens, UniProt P00533, T790M/C797S, cells depend on it, form not given); test: Cell proliferation inhibition experiment (CellTiter-Glo), Ba/F3 De119/T790M/C797S; conditions: Ba/F3 Del19/T790M/C797S EGFR triple mutant cells, 72 hours, Cell Titer-Glo; read-out: Ba/F3 (Del19/T790M/C797S) IC50
Method: as §1, §2, §3, §4

Ba/F3 L858R/T790M/C797S EGFR triple mutant cell line, sequence (P00533 whole entry T790M/C797S/L858R): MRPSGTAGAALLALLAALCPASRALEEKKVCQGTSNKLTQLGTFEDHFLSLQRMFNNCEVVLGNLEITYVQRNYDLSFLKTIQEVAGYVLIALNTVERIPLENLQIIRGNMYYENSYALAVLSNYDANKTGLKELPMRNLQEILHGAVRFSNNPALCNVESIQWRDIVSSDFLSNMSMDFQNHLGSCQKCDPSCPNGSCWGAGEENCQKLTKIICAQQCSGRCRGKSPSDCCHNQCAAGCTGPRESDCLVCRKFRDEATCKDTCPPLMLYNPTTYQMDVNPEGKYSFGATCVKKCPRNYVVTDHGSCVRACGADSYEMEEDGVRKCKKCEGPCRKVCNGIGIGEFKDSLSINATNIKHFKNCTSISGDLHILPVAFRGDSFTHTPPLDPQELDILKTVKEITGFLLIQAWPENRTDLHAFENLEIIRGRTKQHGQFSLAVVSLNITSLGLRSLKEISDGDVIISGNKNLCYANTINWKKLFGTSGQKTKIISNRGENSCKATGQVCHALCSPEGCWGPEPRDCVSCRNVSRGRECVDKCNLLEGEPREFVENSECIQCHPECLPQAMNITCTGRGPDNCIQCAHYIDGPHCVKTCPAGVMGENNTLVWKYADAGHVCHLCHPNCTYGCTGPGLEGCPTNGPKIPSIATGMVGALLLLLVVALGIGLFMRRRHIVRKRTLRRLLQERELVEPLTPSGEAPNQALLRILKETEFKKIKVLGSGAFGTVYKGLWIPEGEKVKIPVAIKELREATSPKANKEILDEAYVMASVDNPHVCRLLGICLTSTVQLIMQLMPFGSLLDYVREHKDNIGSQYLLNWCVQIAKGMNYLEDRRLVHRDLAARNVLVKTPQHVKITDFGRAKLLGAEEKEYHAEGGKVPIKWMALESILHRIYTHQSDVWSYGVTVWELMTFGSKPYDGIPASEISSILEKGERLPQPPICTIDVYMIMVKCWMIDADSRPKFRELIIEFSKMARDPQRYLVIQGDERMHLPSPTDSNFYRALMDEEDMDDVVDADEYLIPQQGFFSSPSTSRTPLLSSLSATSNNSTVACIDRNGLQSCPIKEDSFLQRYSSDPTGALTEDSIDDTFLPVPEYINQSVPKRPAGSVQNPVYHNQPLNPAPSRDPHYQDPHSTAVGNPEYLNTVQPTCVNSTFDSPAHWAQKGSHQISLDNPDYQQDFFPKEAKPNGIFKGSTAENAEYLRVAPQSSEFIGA
Ba/F3 De119/T790M/C797S EGFR triple mutant cell line, sequence (P00533 with tags, fused parts or gaps DEL746-750/T790M/C797S, form open): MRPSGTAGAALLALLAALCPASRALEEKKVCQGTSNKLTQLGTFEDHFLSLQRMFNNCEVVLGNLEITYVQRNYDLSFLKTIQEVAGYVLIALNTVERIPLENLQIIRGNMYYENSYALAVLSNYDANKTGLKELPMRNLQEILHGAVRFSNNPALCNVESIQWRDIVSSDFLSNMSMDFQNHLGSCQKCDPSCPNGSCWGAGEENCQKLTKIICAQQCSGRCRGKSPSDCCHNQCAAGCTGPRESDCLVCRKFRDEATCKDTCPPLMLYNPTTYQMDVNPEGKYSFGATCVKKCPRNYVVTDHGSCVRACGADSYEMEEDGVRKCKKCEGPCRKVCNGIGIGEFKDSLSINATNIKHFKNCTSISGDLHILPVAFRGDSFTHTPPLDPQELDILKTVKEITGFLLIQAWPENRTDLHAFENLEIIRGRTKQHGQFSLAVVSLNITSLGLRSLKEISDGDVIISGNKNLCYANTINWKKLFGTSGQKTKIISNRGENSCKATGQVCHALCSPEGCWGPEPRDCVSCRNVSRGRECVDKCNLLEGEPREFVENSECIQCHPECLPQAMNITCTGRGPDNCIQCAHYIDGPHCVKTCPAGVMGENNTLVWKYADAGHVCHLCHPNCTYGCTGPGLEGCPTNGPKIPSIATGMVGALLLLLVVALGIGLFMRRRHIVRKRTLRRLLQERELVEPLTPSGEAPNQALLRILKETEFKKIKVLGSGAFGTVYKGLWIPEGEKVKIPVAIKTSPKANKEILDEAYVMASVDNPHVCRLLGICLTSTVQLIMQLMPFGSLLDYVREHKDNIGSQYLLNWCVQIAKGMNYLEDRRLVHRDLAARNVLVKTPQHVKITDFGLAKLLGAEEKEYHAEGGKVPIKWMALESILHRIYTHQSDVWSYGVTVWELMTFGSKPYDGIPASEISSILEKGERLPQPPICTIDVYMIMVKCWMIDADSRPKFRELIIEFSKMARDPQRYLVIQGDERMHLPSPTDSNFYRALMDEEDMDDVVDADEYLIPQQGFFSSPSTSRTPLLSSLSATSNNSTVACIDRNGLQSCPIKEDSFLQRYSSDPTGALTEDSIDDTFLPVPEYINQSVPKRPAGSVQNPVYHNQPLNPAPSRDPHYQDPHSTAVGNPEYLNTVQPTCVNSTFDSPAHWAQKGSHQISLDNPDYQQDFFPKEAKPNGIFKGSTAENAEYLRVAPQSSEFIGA

SMILES | IC50 ([1]; A-431, 72 h) [nM] | GI50 [2] [nM] | GI50 [3] [nM] | IC50 ([1]; A-431, 72 hours) [nM]
COc1ccc(-n2ccnc2)cc1Nc1ncc(Br)c(Nc2ccc3nccnc3c2P(C)(C)=O)n1 [compound 50] | 508 |  | 34.1 | 
COc1nc(N(C)CCN(C)C)c(-c2cnn(C)c2)cc1Nc1ncc(Br)c(Nc2ccc3nccnc3c2P(C)(C)=O)n1 [compound 45] | 102 |  | 7.65 | 
COc1cc(N2CCC(N3CCN(C)CC3)CC2)ccc1Nc1ncc(Cl)c(Nc2ccccc2P(C)(C)=O)n1 [Brigatinib, reference compound] |  | 320 | 103 | 771
CNC(=O)c1ccccc1Nc1nc(Nc2cc(-c3cnn(C)c3)c(N3CCOCC3)cc2OC)ncc1Br [compound 52] | 158 |  | 26.7 | 
COc1cc(N2CCOCC2)c(-c2cnn(C)c2)cc1Nc1ncc(Br)c(Nc2ccccc2S(=O)(=O)C(C)C)n1 [compound 54] | 638 |  | 103 | 
COc1cc(N2CCOCC2)c(-c2cncnc2)cc1Nc1ncc(C)c(Nc2ccc3nccnc3c2P(C)(C)=O)n1 [compound 60] | 658 |  | 89.3 | 
Cn1cc(-c2cc(Nc3ncc(Br)c(Nc4ccc5nccnc5c4P(C)(C)=O)n3)cc(F)c2N2CCOCC2)cn1 [compound 46] | 67.2 | 11.7 | 6.71 | 
COc1nc(N2CCC3(CC2)COC3)c(-c2cnn(C)c2)cc1Nc1ncc(Br)c(Nc2ccc3nccnc3c2P(C)(C)=O)n1 [compound 67] |  | 59.2 | 42.3 | 622
CN1CCN(c2ncc(Nc3ncc(Br)c(Nc4ccc5nccnc5c4P(C)(C)=O)n3)cc2-c2cnn(C)c2)CC1 [Compound 70, (6-((5-bromo-2-((5-(1-methyl-1H-pyrazol-4-yl)-6-(4-methylpiperazin-1-yl)pyridin-3-yl)amino)pyrimidin-4-yl)amino)quinoxalin-5-yl)dimethylphosphine oxide] | 157 | 348 | 117 | 
COc1cc(N2CCOCC2)c(C#N)cc1Nc1ncc(Br)c(Nc2ccc3nccnc3c2P(C)(C)=O)n1 [compound 59] | 345 |  | 26.2 | 
COc1cc(P(C)(C)=O)c(-c2cnn(C)c2)cc1Nc1ncc(Br)c(Nc2ccc3nccnc3c2P(C)(C)=O)n1 [compound 55] | ≥ 5000 |  | 1230 | 
Cn1cc(-c2cc(Nc3ncc(Br)c(Nc4ccc5nccnc5c4P(C)(C)=O)n3)ccc2N2CCOCC2)cn1 [compound 48] | 51.1 | 6.03 | 3.02 | 
COc1c(Nc2ncc(Br)c(Nc3ccc4nccnc4c3P(C)(C)=O)n2)cc(-c2cnn(C)c2)c(N2CCOCC2)c1C [Compound 68, (6-((5-bromo-2-((2-methoxy-3-methyl-5-(1-methyl-1H-pyrazol-4-yl)-4-morpholinylphenyl)amino)pyrimidin-4-yl)amino)quinoxalin-5-yl)dimethylphosphine oxide] | 1390 | 372 | 114 | 

Further lines, with some results ahead:

IC50 ([1]; A-431, 72 h) [nM] | GI50 [2] [nM] | GI50 [3] [nM] | SMILES | IC50 ([1]; A-431, 72 hours) [nM]
29.1 | 6.2 | 2.87 | Cc1cc(Nc2ncc(Br)c(Nc3ccc4nccnc4c3P(C)(C)=O)n2)cc(-c2cnn(C)c2)c1N1CCOCC1 [compound 100, (6-((5-bromo-2-((3-methyl-5-(1-methyl-1H-pyrazol-4-yl)-4-morpholinylphenyl)amino)pyrimidin-4-yl)amino)quinoxalin-5-yl)dimethylphosphine oxide] | 
6580 | 794 | 312 | COc1cc(N2CCOCC2)c(-n2cccn2)cc1Nc1ncc(Br)c(Nc2ccc3nccnc3c2P(C)(C)=O)n1 [compound 61] | 
157 | 120 | 41 | COc1cc(N2CCNCC2)c(-c2cnn(C)c2)cc1Nc1ncc(Br)c(Nc2ccc3nccnc3c2P(C)(C)=O)n1 [compound 117] | 
209 | 104 | 40.6 | COc1cc(N2CCN(CCO)CC2)c(-c2cnn(C)c2)cc1Nc1ncc(Br)c(Nc2ccc3nccnc3c2P(C)(C)=O)n1 [compound 99] | 
575 | 10.8 | 3.04 | COc1cc(N2CCCCC2)c(-c2cnn(C)c2)cc1Nc1ncc(Br)c(Nc2ccc3nccnc3c2P(C)(C)=O)n1 [compound 66] | 
3260 | 536 | 326 | COc1cc(N2CCOCC2)c(-n2cc(C)cn2)cc1Nc1ncc(Br)c(Nc2ccc3nccnc3c2P(C)(C)=O)n1 [compound 73] | 
3380 | 195 | 73.6 | COc1cc(N2CCOCC2)c(-c2cnn(C)c2)c(F)c1Nc1ncc(Br)c(Nc2ccc3nccnc3c2P(C)(C)=O)n1 [compound 62] | 
331 | 24.9 | 14.3 | COc1nc(N2CCOCC2)c(-c2cnn(C)c2)cc1Nc1ncc(C)c(Nc2ccc3nccnc3c2P(C)(C)=O)n1 [compound 63] | 
44.2 | 9.39 | 3.52 | COc1cc(N2CCC(N(C)C)CC2)c(-c2cnn(C)c2)cc1Nc1ncc(Br)c(Nc2ccc3nccnc3c2P(C)(C)=O)n1 [compound 96] | 
20.7 | 9.96 | 5.4 | CN1CCC2(CC1)CCN(c1ccc(Nc3ncc(Br)c(Nc4ccc5nccnc5c4P(C)(C)=O)n3)cc1-c1cnn(C)c1)CC2 [compound 76] | 
189 | 176 | 74.5 | COc1cc(N2CCC(C)(N)CC2)c(-c2cnn(C)c2)cc1Nc1ncc(Br)c(Nc2ccc3nccnc3c2P(C)(C)=O)n1 [compound 113] | 
59.3 | 35 | 25.6 | COc1cc(C2=CCN(C)CC2)c(-c2cnn(C)c2)cc1Nc1ncc(Br)c(Nc2ccc3nccnc3c2P(C)(C)=O)n1 [compound 177] | 
92.8 | 24.5 | 12.5 | COc1cc(N2CCN(C)C(C)(C)C2)c(-c2cnn(C)c2)cc1Nc1ncc(Br)c(Nc2ccc3nccnc3c2P(C)(C)=O)n1 [compound 108] | 
96.7 | 40.9 | 15.7 | COc1c(Nc2ncc(Br)c(Nc3ccc4nccnc4c3P(C)(C)=O)n2)cc(-c2cnn(C)c2)c(N2CCC(N(C)C)CC2)c1F [compound 95] | 
547 | 62.8 | 46.3 | COc1cc(N2CC3(COC3)C2)c(-c2cnn(C)c2)cc1Nc1ncc(Br)c(Nc2ccc3nccnc3c2P(C)(C)=O)n1 [compound 109] | 
72.4 | 17.3 | 6.68 | COc1nc(N2CCN(C)CC2)c(-c2cnn(C)c2)cc1Nc1ncc(Br)c(Nc2ccc3nccnc3c2P(C)(C)=O)n1 [compound 65] | 
4390 | 446 | 251 | COc1cc(N2CCOCC2)c(-c2ccnn2C)cc1Nc1ncc(Br)c(Nc2ccc3nccnc3c2P(C)(C)=O)n1 [compound 90] | 
3550 | 430 | 278 | COc1cc(N2CCOCC2)c(-c2cncn2C)cc1Nc1ncc(Br)c(Nc2ccc3nccnc3c2P(C)(C)=O)n1 [compound 91] | 
